US20240148713A1 (INDUSTRY-ACADEMIC COOPERATION FOUNDATION, YONSEI UNIVERSITY, priority 2021, published 2024)

Assays:
HS746T [1] = assay: Cell viability (CCK-8), treatment alone, Example 1; assay type: cell-based, human; conditions: HS746T stem-like cell line, different concentrations, 48 hours, FIG. 1
Procedure: (§1) In order to evaluate the ability to inhibit the growth or metastasis of cancer cell lines or cancer stem cell lines in Examples of the present invention, the present inventors obtained the cell lines MKN1 and HS746T having human gastric cancer stem cell characteristics, and the human gastric cancer cell lines SNU601, YCC7 and NCIN87, from the American Type Culture Collection (ATCC) and the Korean Cell Line Bank (KCRB). The cell lines were cultured in different culture media under different culture conditions according to the ATCC or KCRB guides. The MKN1, SNU601, and NCIN87 cell lines were cultured in RPMI1640 media containing 10% fetal bovine serum (FBS), 2 mM L-glutamine, 100 U/ml penicillin and 100 μg/ml streptomycin, and the HS746T and YCC7 cell lines were cultured in DMEM media containing 10% FBS, 2 mM L-glutamine, 100 U/ml penicillin and 100 μg/ml streptomycin. All the cell lines were cultured at 37° C. under 5% CO2, and mycoplasma contamination tests were performed.
(§2) The cell lines cultured in the Preparation Example were seeded into well plates at a density of 1×10^4 cells per well, and cultured overnight at 37° C. under 5% CO2. Next, each of the gastric cancer stem-like cell lines HS746T and MKN1 and the gastric cancer cell lines YCC7 and NCIN87 was treated with different concentrations of each of the anticancer drug cisplatin (CDDP), which is currently widely used in the treatment of gastric cancer patients, and the MRTF A inhibitor CCG-232601 compound, and after 48 hours, the number of cells was counted and the results are shown in FIG. 1. 100 μL of each cell culture and 10 μL of reaction buffer (CCK) were mixed together, placed in a 96-well plate, incubated for 1 hour at room temperature, and then measured for absorbance at a wavelength of 450 nm using a spectrophotometer (Synergy HTX Multi-Reader, BioTek, Winooski, VT, USA). At the same time, the number of cells in each sample was counted using a cell viability assay kit (Cell Counting Kit-8), and the counted value was expressed relative to the cell number of the negative control group so that the same cell number in each cell could be compared with the cell number of the negative control group. The experimental results are shown as the mean values of the repeated experiments.

MKN1 [2] = assay: Cell viability (CCK-8), treatment alone, Example 1; assay type: cell-based, human; conditions: MKN1 stem-like cell line, different concentrations, 48 hours, FIG. 1
Procedure: as §1, §2

HS746T [3] = assay: Drug sensitivity upon treatment with cisplatin (CDDP); assay type: cell-based, human
Procedure: (§3) Drug sensitivity upon treatment with cisplatin (CDDP) was measured in the gastric cancer cell lines SNU601 and NCIN87 and the cell lines HS746T and MKN1 having gastric cancer stem cell-like characteristics, and the results are shown in FIG. 3.

MKN1 [4] = assay: as above; assay type: cell-based, human
Procedure: as §3

MKN1 cell line = assay: CCK-8 assay, CCG-232601 and cisplatin alone or in combination; assay type: cell-based, human; conditions: FIG. 6
Procedure: Accordingly, in order to evaluate the effect of co-administration of the compound CCG-232601, the survival and growth inhibitory effects upon administration of cisplatin (CDDP) and CCG-232601 alone or in combination to the MKN1 cell line were evaluated using a cell viability assay kit (Cell Counting Kit-8; CCK-8). Unlike administration alone, to evaluate the effect of co-administration, 5 μg/ml CCG-232601 was first administered to the MKN1 cell line, and 24 hours after administration of CCG-232601, 5 μM cisplatin (CDDP) was administered to the cell line, and 24 hours after administration of CDDP, CCK-8 assay was performed using a cell viability assay kit.

NCIN87 = assay: Cell viability (CCK-8), treatment alone, Example 1; assay type: cell-based, human; conditions: NCIN87 gastric cancer cell line, different concentrations, 48 hours, FIG. 1
Procedure: as §1, §2

YCC7 = assay: Cell viability (CCK-8), treatment alone, Example 1; assay type: cell-based, human; conditions: YCC7 gastric cancer cell line, different concentrations, 48 hours, FIG. 1
Procedure: as §1, §2

HS746T [5] = assay: Oxygen consumption rate (OCR) and extracellular acidification rate (ECAR), extracellular flux analyzer; assay type: cell-based, human
Procedure: (§4) In particular, in order to confirm that the CCG-232601 compound has an excellent inhibitory effect against the growth of cancer stem cells, the oxygen consumption rate (OCR) and extracellular acidification rate (ECAR) of the stern-like cell lines HS746T and MKN1 having high resistance to metabolic stress were measured and the results are FIG. 2. More specifically, each of the cell lines was inoculated at a confluency of 70 to 80% in Seahorse normal culture medium, and oxygen consumption rate (OCR, pmol/min/μg protein) and extracellular acidification rate (ECAR, mpH/min/μg protein) were analyzed using an XF96 or XFp extracellular flux analyzer (Agilent) to determine mitochondrial oxidation and glycolysis levels. Mitochondrial oxidation ability of the cells pretreated for 1 hour with or without 10 mM β-HB (Sigma) was evaluated using the Seahorse XF Mito Stress Kit (Agilent). To overcome changes in oxidation and glycolysis processes upon treatment with CCG-232601, the cells were pretreated overnight with vehicle or the inhibitor, and finally 10 mM β-hydroxybutyrate was added upon the first injection.

MKN1 [6] = assay: as above; assay type: cell-based, human
Procedure: as §4

HS746T [7] = assay: Transwell invasion assay; assay type: cell-based, human; conditions: 10 μg/ml, 12 hours, matrigel transwell, FIG. 3
Procedure: (§5) Transwell invasion assay was performed with or without CCG-232601 treatment. Invasion ability was measured using a 6.5-mm transwell with an 8.0 μm-pore polycarbonate membrane insert (Corning) after coating with matrigel (Corning) diluted with serum-free medium to 0.67 μg/μl. Then, 2×10^4 cells per well were suspended in 200 μl of serum-free medium with vehicle or 10 μg/ml CCG-232601, and 1,000 μl of culture medium containing 10% FBS was added to the lower chamber. After 12 hours, the transferred cells were stained with 0.2% crystal violet and observed under an optical microscope. The average number of cells penetrating the membrane was counted with ImageJ (NIH) in three randomly selected high-power fields and two independent experiments, and the results are shown in FIG. 3.

MKN1 [8] = assay: Transwell invasion assay; assay type: cell-based, human; conditions: MKN1, 10 μg/ml, 12 hours, matrigel transwell, FIG. 3
Procedure: as §5

HS746T cell line [9] = assay: CCK-8 assay, CCG-232601 and oxaliplatin alone or in combination; assay type: cell-based, human
Procedure: In order to examine whether the co-administration of the compound CCG-232601 is also effective in improving drug sensitivity to other platinum-based anticancer drugs of the same family as cisplatin, the survival and growth inhibitory effects upon administration of CCG-232601 and oxaliplatin alone or in combination to the HS746T cell line were evaluated using a cell viability assay kit (Cell Counting Kit-8; CCK-8). Unlike administration alone, to evaluate the effect of co-administration, 5 μg/ml CCG-232601 was first administered to the HS746T cell line, and 24 hours after administration of CCG-232601, 24 μg/ml oxaliplatin was administered to the cell line, and 24 hours after administration of oxaliplatin, CCK-8 assay was performed using a cell viability assay kit.

HS746T cell line [10] = assay: CCK-8 assay, MRTF A inhibitor and cisplatin alone or in combination; assay type: cell-based, human; conditions: 5 μg/ml inhibitor, after 24 hours 5 μM cisplatin, CCK-8 24 hours later, FIG. 8
Procedure: In the same manner as described above, 5 μg/ml CCG-232601, CCG-203971 or CCG-222740 was first administered to the HS746T cell line, and after 24 hours, 5 μM cisplatin (CDDP) was administered to the cell line, and 24 hours after administration of CDDP, a CCK-8 assay was performed using a cell viability assay kit.

[11] = system: bleomycin-induced dermal fibrosis; conditions: administered orally to mice; cited from earlier work
[12] = system: human colonic myofibroblasts; conditions: cited from earlier work
[13] = system: murine model of skin injury; conditions: cited from earlier work
[14] = system: lung fibrosis lung fibroblasts; conditions: cited from earlier work
[15] = system: alpha smooth muscle actin protein; conditions: cited from earlier work
[16] = system: preclinical fibrosis model; conditions: cited from earlier work

N.N.[Cl][Pt][Cl] [cisplatin]
antitumor effect (cell number relative to negative control) (HS746T [1]): exhibited significantly improved antitumor effects | antitumor effect (cell number relative to negative control) (MKN1 [2]): exhibited significantly improved antitumor effects | drug sensitivity lower than that of the cancer cell lines (HS746T [3]; HS746T versus SNU601 and NCIN87, FIG. 4): 20 to 40% | resistance of the cell line to cisplatin (HS746T [3]; HS746T, FIG. 4): showed resistance | resistance of the cell line to cisplatin (MKN1 [4]; MKN1, FIG. 4): showed resistance | drug sensitivity lower than that of the cancer cell lines (MKN1 [4]; MKN1 versus SNU601 and NCIN87, FIG. 4): 20 to 40% | effect on cell viability, administered alone (MKN1 cell line; MKN1, cisplatin alone): drug resistance

O=C(Nc1ccc(Cl)cc1)C1CN(C(=O)c2cccc(-c3ccncc3)c2)CC(F)(F)C1 (centres unmarked) [CCG-232601, N-(4-chlorophenyl)-5,5-difluoro-1-(3-(pyridin-4-yl)benzoyl)piperidine-3-carboxamide]
antitumor effect (cell number relative to negative control) (HS746T [1]): exhibited antitumor effects | antitumor effect (cell number relative to negative control) (MKN1 [2]): exhibited antitumor effects | antitumor effect (cell number relative to negative control) (NCIN87): exhibited antitumor effects | antitumor effect (cell number relative to negative control) (YCC7): exhibited antitumor effects | susceptibility to glucose deprivation (HS746T [5]; conclusion from OCR/ECAR results): greatly increased the susceptibility | glycolytic ECAR versus OCR (mitochondrial respiration) (HS746T [5]; pretreated overnight with inhibitor, FIG. 2): ECAR was higher than the OCR | susceptibility to glucose deprivation (MKN1 [6]; MKN1, conclusion from OCR/ECAR results): greatly increased the susceptibility | glycolytic ECAR versus OCR (mitochondrial respiration) (MKN1 [6]; MKN1, pretreated overnight with inhibitor, FIG. 2): ECAR was higher than the OCR | invasion and metastasis (cells penetrating the membrane) (HS746T [7]): reduced the invasion and metastasis | invasion and metastasis (cells penetrating the membrane) (MKN1 [8]): reduced the invasion and metastasis | reduction of cell viability (MKN1 cell line; MKN1, administered alone, compared to negative control group and cisplatin-alone group): 20% | cytotoxicity at 5 µg/mL (HS746T cell line [9]; Homo sapiens, 5 μg/ml CCG-232601, after 24 hours 24 μg/ml oxaliplatin, CCK-8 24 hours later, FIG. 7, read-out: reduction of cell viability compared to oxaliplatin alone): ≥ 20% | growth of the cancer stem-like cells, administered alone (HS746T cell line [9]; administered alone, FIG. 7): reduced the growth | drug sensitivity to cisplatin in combination versus cisplatin alone (HS746T cell line [10]): drug sensitivity was improved | development of bleomycin-induced dermal fibrosis [11]: suppress the development

O=C(Nc1ccc(Cl)cc1)C1CCCN(C(=O)c2cccc(-c3ccco3)c2)C1 (centres unmarked) [CCG-203971, N-(4-chlorophenyl)-1-(3-(furan-2-yl)benzoyl)piperidine-3-carboxamide]
drug sensitivity to cisplatin in combination versus cisplatin alone (HS746T cell line [10]): drug sensitivity was improved | matrix stiffness and TGF-β-mediated fibrogenesis [12]: represses | antifibrotic activity [13]: shows antifibrotic activity | antifibrotic activity [14]: shows antifibrotic activity

O=C(Nc1ccc(Cl)cc1)C1CN(C(=O)c2cccc(-c3ccco3)c2)CC(F)(F)C1 (centres unmarked) [CCG-222740, N-(4-chlorophenyl)-5,5-difluoro-1-(3-(furan-2-yl)benzoyl)piperidine-3-carboxamide]
drug sensitivity to cisplatin in combination versus cisplatin alone (HS746T cell line [10]): drug sensitivity was improved | expression of alpha smooth muscle actin protein [15]: prevent the expression | scar tissue formation [16]: effectively prevent scar tissue formation
